Values of other authors as cited in US20170112867A1, “PHARMACEUTICAL COMBINATIONS OF […] RIBAVIRIN” (SANOVEL ILAC SANAYI VE TICARET ANONIM SIRKETI, priority 2014, published 2017).

Assays:
[1] = system: chronic hepatitis C (CHC) infections; details: ribavirin alone, during or after therapy
[2] = system: Cytochromes P450 (CYP)

In the case of “1-β-Dribofuranosyl-1H-1,2,4-triazole-3-carboxamide [Ribavirin]”, the “solubility in anhydrous alcohol” value (anhydrous alcohol) is listed as “slightly soluble”, the solubility in water is listed as “freely soluble” and the “HCV RNA levels” value [1] is listed as “did not reduce HCV RNA levels”.

In the case of CC(C)OC(=O)[C@H](C)N[P@](=O)(OC[C@H]1O[C@@H](n2ccc(=O)[nH]c2=O)[C@](C)(F)[C@@H]1O)Oc1ccccc1 [Sofosbuvir, (S)-Isopropyl 2-((S)-(((2R,3R,4R,5R)-5-(2,4-dioxo3,4-dihydropyrimidin-1(2H)-yl)-4-fluoro-3-hydroxy-4-methyltetrahydrofuran-2yl)methoxy)-(phenoxy)phosphorylamino)propanoate], the solubility (across the pH range of 2-7.7 at 37° C.) is listed as at least 2000 µg/mL, the solubility in water is listed as “slightly soluble” and the “metabolism by Cytochromes P450 (CYP)” value [2] is listed as “not metabolized”.
